# Test results from ChEMBL document CHEMBL5512603, “Development of de-novo coronavirus 3-chymotrypsin-like protease (3CLpro) inhibitors since COVID-19 outbreak: A strategy to tackle challenges of persistent virus infection” (Eur J Med Chem, 2024).
# How the values were obtained:
# [1] = Cytotoxicity against African green monkey Vero E6 cells; assay type: toxicity, cell-based, Vero C1008; details: chlorocebus sabaeus
# [2] = target: T1, Replicase polyprotein 1ab (Severe acute respiratory syndrome coronavirus 2, UniProt P0DTD1); test: Inhibition of 2019-nCoV-2 3CLp using fluorescent substrate by FRET assay
# [3] = target: T1, Replicase polyprotein 1ab; test: Inhibition of SARS-CoV-2 3CLp by mass spectrometry
# [4] = target: T1, Replicase polyprotein 1ab; test: Inhibition of SARS-CoV-2 3CLp
# [5] = target: Protein cereblon/Replicase polyprotein 1ab (Severe acute respiratory syndrome coronavirus 2, UniProt P0DTD1+Q96SW2); test: PROTAC activity at SARS-CoV-2 Main protease/CRBN E3 ligase (unknown origin)
# [6] = target: T1, Replicase polyprotein 1ab; test: Inhibition of SARS-CoV-2 3CLp using fluorescent substrate by FRET assay
# [7] = target: T1, Replicase polyprotein 1ab; test: Inhibition of SARS-CoV-2 recombinant main protease; assay type: single protein
# Chain of Protein cereblon/Replicase polyprotein 1ab (Q96SW2 whole entry, other chains not shown): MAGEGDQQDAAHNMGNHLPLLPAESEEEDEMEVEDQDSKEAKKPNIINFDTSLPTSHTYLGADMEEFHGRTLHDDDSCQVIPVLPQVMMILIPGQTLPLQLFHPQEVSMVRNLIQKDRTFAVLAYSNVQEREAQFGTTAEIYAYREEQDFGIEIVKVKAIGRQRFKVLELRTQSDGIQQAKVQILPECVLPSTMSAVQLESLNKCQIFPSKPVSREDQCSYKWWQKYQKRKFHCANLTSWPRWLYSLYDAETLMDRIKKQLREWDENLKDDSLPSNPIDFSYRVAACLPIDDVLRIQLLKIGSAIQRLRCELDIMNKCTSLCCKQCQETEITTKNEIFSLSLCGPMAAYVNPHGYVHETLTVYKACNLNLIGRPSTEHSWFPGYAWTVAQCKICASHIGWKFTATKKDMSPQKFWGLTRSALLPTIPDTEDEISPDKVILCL
smiles,measurement,setting,value
CC(C)(C)NC(=O)[C@@H](c1cccnc1)N(C(=O)c1c[nH]cn1)c1ccc(C(C)(C)C)cc1,CC50,[1],129000 nM
same,IC50,[2],960 nM
Cc1cncc(-n2c(=O)nc(Nc3cc4cn(C)nc4cc3Cl)n(Cc3cc(C#N)c(F)cc3C)c2=O)c1,IC50,[3],35 nM
C[C@H](NC(=O)[C@@H](c1cccnc1)N(C(=O)c1ccco1)c1ccc(-c2ccccc2)cc1)c1ccccc1,CC50,[1],> 200000 nM
same,IC50,[2],660 nM
Cn1cc2cc(/N=c3\[nH]c(=O)n(Cc4cn(CCCCC(=O)Nc5cccc6c5C(=O)N(C5CCC(=O)NC5=O)C6)nn4)c(=O)n3Cc3cc(F)c(F)cc3F)c(Cl)cc2n1 (stereo unspecified),IC50,[4],< 100 nM
same,EC50,[5],< 100 nM
C[C@H](NC(=O)[C@@H](c1cccnc1)N(C(=O)CCl)c1ccc(-c2ccccc2)cc1)c1ccccc1,IC50,[6],50 nM
O=C(O)c1ccc(Nc2nc(=O)n(Cc3ccc[nH]c3=O)c(=O)n2Cc2cc(F)c(F)c(F)c2)cc1,IC50,[3],< 1000 nM
COc1cc(Cl)cc(-c2cc(-c3c[nH]c(=O)[nH]c3=O)cn(-c3cccnc3)c2=O)c1,IC50,[7],1000 nM
Cn1cc2cc(/N=c3\[nH]c(=O)n(Cc4cn(CCOCC(=O)Nc5cccc6c5C(=O)N(C5CCC(=O)NC5=O)C6)nn4)c(=O)n3Cc3cc(F)c(F)cc3F)c(Cl)cc2n1 (stereo unspecified),IC50,[4],> 100 nM
same,EC50,[5],< 100 nM
O=c1[nH]cc(-c2cc(-c3cc(Cl)cc(COc4ccccc4)c3)c(=O)n(-c3cccnc3)c2)c(=O)[nH]1,IC50,[7],128 nM
O=c1[nH]cc(-c2cc(-c3cc(Cl)cc(COc4c(F)cccc4F)c3)c(=O)n(-c3cccnc3)c2)c(=O)[nH]1,IC50,[7],36 nM
Cn1cc2cc(/N=c3\[nH]c(=O)n(Cc4cn(CCCCCC(=O)Nc5cccc6c5C(=O)N(C5CCC(=O)NC5=O)C6)nn4)c(=O)n3Cc3cc(F)c(F)cc3F)c(Cl)cc2n1 (stereo unspecified),IC50,[4],< 100 nM
same,EC50,[5],< 100 nM
Cn1cc2cc(/N=c3\[nH]c(=O)n(Cc4cn(CCCCCCC(=O)Nc5cccc6c5C(=O)N(C5CCC(=O)NC5=O)C6)nn4)c(=O)n3Cc3cc(F)c(F)cc3F)c(Cl)cc2n1 (stereo unspecified),IC50,[4],> 100 nM
same,EC50,[5],< 100 nM
CC(C)COc1cc(Cl)cc(-c2cc(-c3c[nH]c(=O)[nH]c3=O)cn(-c3cccnc3)c2=O)c1,IC50,[7],190 nM
CCn1nnnc1Cn1c(=O)[nH]/c(=N\c2cc3cn(C)nc3cc2Cl)n(Cc2cc(F)c(F)cc2F)c1=O,IC50,[2],160 nM
Cn1cc2cc(/N=c3\[nH]c(=O)n(Cc4cn(CCOCCOCC(=O)Nc5cccc6c5C(=O)N(C5CCC(=O)NC5=O)C6=O)nn4)c(=O)n3Cc3cc(F)c(F)cc3F)c(Cl)cc2n1 (stereo unspecified),IC50,[4],< 100 nM
same,EC50,[5],< 100 nM
Cn1cc2cc(/N=c3\[nH]c(=O)n(Cc4cn(CCCC(=O)Nc5cccc6c5C(=O)N(C5CCC(=O)NC5=O)C6)nn4)c(=O)n3Cc3cc(F)c(F)cc3F)c(Cl)cc2n1 (stereo unspecified),IC50,[4],> 100 nM
same,EC50,[5],< 100 nM
O=c1[nH]cc(-c2cc(-c3cc(Cl)cc(OCCc4ccccc4)c3)c(=O)n(-c3cccnc3)c2)c(=O)[nH]1,IC50,[7],37 nM
Cn1cc2cc(/N=c3\[nH]c(=O)n(Cc4cn(CCCCCCC(=O)Nc5cccc6c5C(=O)N(C5CCC(=O)NC5=O)C6=O)nn4)c(=O)n3Cc3cc(F)c(F)cc3F)c(Cl)cc2n1 (stereo unspecified),IC50,[4],< 100 nM
same,EC50,[5],> 100 nM
CC(=O)NCCn1cc2cc(Nc3nc(=O)n(Cc4ccc[nH]c4=O)c(=O)n3Cc3cc(F)c(F)c(F)c3)c(Cl)cc2n1,IC50,[3],< 1000 nM
Cn1cc2cc(/N=c3\[nH]c(=O)n(Cc4cn(CCOCCOCC(=O)Nc5cccc6c5C(=O)N(C5CCC(=O)NC5=O)C6)nn4)c(=O)n3Cc3cc(F)c(F)cc3F)c(Cl)cc2n1 (stereo unspecified),IC50,[4],< 100 nM
same,EC50,[5],< 100 nM
Cn1cnc(Cn2c(=O)cc(Nc3cc4cn(C)nc4cc3OC(F)(F)F)n(Cc3cc(F)c(F)cc3F)c2=O)n1,IC50,[3],10 nM
O=C1c2c(O)cc(O)c([Se][Se]c3c(O)cc(O)c4c3OC(c3cc(O)c(O)c(O)c3)C(O)C4=O)c2CC(c2cc(O)c(O)c(O)c2)C1O (stereo unspecified),IC50,[6],810 nM
CC(C)(C)c1ccc(N(C(=O)c2ccco2)[C@@H](C(=O)NC2CCCC2)c2cccnc2)cc1,CC50,[1],101000 nM
same,IC50,[2],2510 nM
CCn1nncc1Cn1c(=O)[nH]/c(=N\c2cc3cn(C)nc3cc2Cl)n(Cc2cc(F)c(F)cc2F)c1=O,IC50,[2],123 nM
Cn1cc2cc(/N=c3\[nH]c(=O)n(Cc4cn(CCOCCOCCOCC(=O)Nc5cccc6c5C(=O)N(C5CCC(=O)NC5=O)C6)nn4)c(=O)n3Cc3cc(F)c(F)cc3F)c(Cl)cc2n1 (stereo unspecified),IC50,[4],> 100 nM
same,EC50,[5],< 100 nM
O=c1[nH]cccc1Cn1c(=O)nc(Nc2cc3cn(C4CCOCC4)nc3cc2Cl)n(Cc2cc(F)c(F)c(F)c2)c1=O,IC50,[3],< 1000 nM
Cn1cc2cc(/N=c3\[nH]c(=O)n(Cc4cn(CCCCC(=O)Nc5cccc6c5C(=O)N(C5CCC(=O)NC5=O)C6=O)nn4)c(=O)n3Cc3cc(F)c(F)cc3F)c(Cl)cc2n1 (stereo unspecified),IC50,[4],< 100 nM
same,EC50,[5],< 100 nM
Cc1cc(Cn2c(Nc3cc4cn(C)nc4cc3Cl)cc(=O)n(Cc3ncn(C)n3)c2=O)c(F)cc1F,IC50,[3],12 nM
CC(=O)Nc1nc2cc(Cl)c(Nc3nc(=O)n(Cc4ncn(C)n4)c(=O)n3Cc3cc(F)c(F)c(Cl)c3)cc2s1,IC50,[3],< 1000 nM
CC(C)(C)c1ccc(N(C(=O)c2ccco2)[C@@H](C(=O)NC2CC2)c2cccnc2)cc1,CC50,[1],52800 nM
same,IC50,[2],3860 nM
Cn1cc2cc(/N=c3\[nH]c(=O)n(Cc4cn(CCOCC(=O)Nc5cccc6c5C(=O)N(C5CCC(=O)NC5=O)C6=O)nn4)c(=O)n3Cc3cc(F)c(F)cc3F)c(Cl)cc2n1 (stereo unspecified),IC50,[4],> 100 nM
same,EC50,[5],< 100 nM
